Structures can show the parent of a compound that is named as a salt.
These compounds were tested against T1, BRD4 proteins (Homo sapiens, UniProt O60885) (assay: Degradation of BRD4 protein in MM.1S cell lines (Western blot densitometry)). Conditions: MM.1S cells, 10 μM, 24 hours.
T1 construct: endogenous in cells; host or cells: MM.1S
Type: cell-based
Method in brief: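 MM.1S cells in RPMI-1640 with 10% FBS were treated with each degrader at 10 μM for 24 h. RIPA lysates were analysed by SDS-PAGE/Western blot with β-actin as reference, and BRD4 band densitometry was scored as reduction <40% (+), 40-<70% (++) or ≥70% (+++).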

| SMILES | BRD4 degrading capacity (%) |
| --- | --- |
| COC(=O)c1ccc(NC2CCN(C(=O)C[C@@H]3N=C(c4ccc(Cl)cc4)c4c(sc(C)c4C)-n4c(C)nnc43)CC2)cc1C#CCN [5-86′, methyl (S)-2-(3-aminoprop-1-yn-1-yl)-4-((1-(2-(4-(4-chlorophenyl)-2,3,9-trimethyl-6H-thieno[3,2-f][1,2,4]triazolo[4,3-a][1,4]diazepin-6-yl)acetyl)piperidin-4-yl)amino)benzoate] | +++ (the degrading capacity was reduced by 70% or more) |
| COC(=O)c1cc(C#CCN)cc(NC(=O)CCCNC(=O)C[C@@H]2N=C(c3ccc(Cl)cc3)c3c(sc(C)c3C)-n3c(C)nnc32)c1.Cl [5-89′, methyl (S)-3-(3-aminoprop-1-yn-1-yl)-5-(4-(2-(4-(4-chlorophenyl)-2,3,9-trimethyl-6H-thieno[3,2-f][1,2,4]triazolo[4,3-a][1,4]diazepin-6-yl)acetamido)butanamido)benzoate hydrochloride] | + (the degrading capacity of each BRD4 degrader was reduced by less than 40%) |
| COC(=O)c1ccc(C#CCN)cc1NC(=O)CCCNC(=O)C[C@@H]1N=C(c2ccc(Cl)cc2)c2c(sc(C)c2C)-n2c(C)nnc21.Cl [5-90′, methyl (S)-4-(3-aminoprop-1-yn-1-yl)-2-(4-(2-(4-(4-chlorophenyl)-2,3,9-trimethyl-6H-thieno[3,2-f][1,2,4]triazolo[4,3-a][1,4]diazepin-6-yl)acetamido)butanamido)benzoate hydrochloride] | +++ (the degrading capacity was reduced by 70% or more) |
| COC(=O)c1nc(NC(=O)CCCNC(=O)C[C@@H]2N=C(c3ccc(Cl)cc3)c3c(sc(C)c3C)-n3c(C)nnc32)ccc1C#CCN.Cl [5-96′, methyl (S)-3-(3-aminoprop-1-yn-1-yl)-6-(4-(2-(4-(4-chlorophenyl)-2,3,9-trimethyl-6H-thieno[3,2-f][1,2,4]triazolo[4,3-a][1,4]diazepin-6-yl)acetamido)butanamido)picolinate hydrochloride] | +++ (the degrading capacity was reduced by 70% or more) |
| Cc1sc2c(c1C)C(c1ccc(Cl)cc1)=N[C@@H](CC(=O)NCCCCCC(=O)Nc1cccc(C#CCN)c1)c1nnc(C)n1-2.Cl [5-104′, (S)—N-(3-(3-aminoprop-1-yn-1-yl)phenyl)-6-(2-(4-(4-chlorophenyl)-2,3,9-trimethyl-6H-thieno[3,2-f][1,2,4]triazolo[4,3-a][1,4]diazepin-6-yl)acetamido)hexanamide hydrochloride] | ++ (the degrading capacity was reduced by 40% to 70% (exclusive of 70)) |
| COC(=O)c1ccc(NC(=O)CCCC(=O)OCC[C@@H]2N=C(c3ccc(Cl)cc3)c3c(sc(C)c3C)-n3c(C)nnc32)cc1C#CCN.Cl [5-106′, methyl (S)-2-(3-aminoprop-1-yn-1-yl)-4-(5-(2-(4-(4-chlorophenyl)-2,3,9-trimethyl-6H-thieno[3,2-f][1,2,4]triazolo[4,3-a][1,4]diazepin-6-yl)ethoxy)-5-oxopentanamido)benzoate hydrochloride] | + (the degrading capacity of each BRD4 degrader was reduced by less than 40%) |
| Cc1sc2c(c1C)C(c1ccc(Cl)cc1)=N[C@@H](CC(=O)NCCCCCCCC(=O)Nc1cccc(C#CCN)c1)c1nnc(C)n1-2.Cl [5-107′, (S)—N-(3-(3-aminoprop-1-yn-1-yl)phenyl)-8-(2-(4-(4-chlorophenyl)-2,3,9-trimethyl-6H-thieno[3,2-f][1,2,4]triazolo[4,3-a][1,4]diazepin-6-yl)acetamido)octanamide hydrochloride] | ++ (the degrading capacity was reduced by 40% to 70% (exclusive of 70)) |
| Cc1sc2c(c1C)C(c1ccc(Cl)cc1)=N[C@@H](CC(=O)NCCCCCCCCCCC(=O)Nc1cccc(C#CCN)c1)c1nnc(C)n1-2.Cl [5-108′, (S)—N-(3-(3-aminoprop-1-yn-1-yl)phenyl)-11-(2-(4-(4-chlorophenyl)-2,3,9-trimethyl-6H-thieno[3,2-f][1,2,4]triazolo[4,3-a][1,4]diazepin-6-yl)acetamido)undecanamide hydrochloride] | +++ (the degrading capacity was reduced by 70% or more) |
| Cc1sc2c(c1C)C(c1ccc(Cl)cc1)=N[C@@H](CCOC(=O)CCCCCCCCCC(=O)Nc1cccc(C#CCN)c1)c1nnc(C)n1-2.Cl [5-109′, (S)-2-(4-(4-chlorophenyl)-2,3,9-trimethyl-6H-thieno[3,2-f][1,2,4]triazolo[4,3-a][1,4]diazepin-6-yl)ethyl 11-((3-(3-aminoprop-1-yn-1-yl)phenyl)amino)-11-oxoundecanoate hydrochloride] | +++ (the degrading capacity was reduced by 70% or more) |
| COC(=O)c1ccc(NC(=O)CCCCCCCCCC(=O)OCC[C@@H]2N=C(c3ccc(Cl)cc3)c3c(sc(C)c3C)-n3c(C)nnc32)cc1C#CCN.Cl [5-110′, methyl (S)-2-(3-aminoprop-1-yn-1-yl)-4-(11-(2-(4-(4-chlorophenyl)-2,3,9-trimethyl-6H-thieno[3,2-f][1,2,4]triazolo[4,3-a][1,4]diazepin-6-yl)ethoxy)-11-oxoundecanamido)benzoate hydrochloride] | ++ (the degrading capacity was reduced by 40% to 70% (exclusive of 70)) |
| Cc1sc2c(c1C)C(c1ccc(Cl)cc1)=N[C@@H](CC(=O)NCCCCCCCNC(=O)c1ccc(-c3ccc(C#CCN)cc3)o1)c1nnc(C)n1-2.Cl [5-111′, (S)-5-(4-(3-aminoprop-1-yn-1-yl)phenyl)-N-(7-(2-(4-(4-chlorophenyl)-2,3,9-trimethyl-6H-thieno[3,2-f][1,2,4]triazolo[4,3-a][1,4]diazepin-6-yl)acetamido)heptyl)furan-2-carboxamide hydrochloride] | ++ (the degrading capacity was reduced by 40% to 70% (exclusive of 70)) |
| COC(=O)c1ccc(NC(=O)CCCOC(=O)C[C@@H]2N=C(c3ccc(Cl)cc3)c3c(sc(C)c3C)-n3c(C)nnc32)cc1C#CCN [5-115′, methyl (S)-2-(3-aminoprop-1-yn-1-yl)-4-(4-(2-(4-(4-chlorophenyl)-2,3,9-trimethyl-6H-thieno[3,2-f][1,2,4]triazolo[4,3-a][1,4]diazepin-6-yl)acetoxy)butanamido)benzoate hydrochloride] | +++ (the degrading capacity was reduced by 70% or more) |
| COC(=O)c1ccc(C#CCNC(=O)C[C@@H]2N=C(c3ccc(Cl)cc3)c3c(sc(C)c3C)-n3c(C)nnc32)cc1C#CCN.Cl [5-116′, methyl (S)-2-(3-aminoprop-1-yn-1-yl)-4-(3-(2-(4-(4-chlorophenyl)-2,3,9-trimethyl-6H-thieno[3,2-f][1,2,4]triazolo[4,3-a][1,4]diazepin-6-yl)acetamido)prop-1-yn-1-yl)benzoate hydrochloride] | +++ (the degrading capacity was reduced by 70% or more) |
| Cc1sc2c(c1C)C(c1ccc(Cl)cc1)=N[C@@H](CC(=O)N1CCC(CNc3ccc(C(=O)O)c(C#CCN)c3)CC1)c1nnc(C)n1-2 [5-139′, (S)-2-(3-aminoprop-1-yn-1-yl)-4-(((1-(2-(4-(4-chlorophenyl)-2,3,9-trimethyl-6H-thieno[3,2-f][1,2,4]triazolo[4,3-a][1,4]diazepin-6-yl)acetyl)piperidin-4-yl)methyl)amino)benzoic acid trifluoroacetic acid] | + (the degrading capacity of each BRD4 degrader was reduced by less than 40%) |
| COC(=O)c1ccc(C(=O)N2CCN(C(=O)C[C@@H]3N=C(c4ccc(Cl)cc4)c4c(sc(C)c4C)-n4c(C)nnc43)CC2)cc1C#CCN.Cl [5-140′, methyl (S)-2-(3-aminoprop-1-yn-1-yl)-4-(4-(2-(4-(4-chlorophenyl)-2,3,9-trimethyl-6H-thieno[3,2-f][1,2,4]triazolo[4,3-a][1,4]diazepin-6-yl)acetyl)piperazine-1-carbonyl)benzoate hydrochloride] | +++ (the degrading capacity was reduced by 70% or more) |
| COC(=O)c1ccc(NC(=O)CCCNC(=O)C[C@@H]2N=C(c3ccc(Cl)cc3)c3c(sc(C)c3C)-n3c(C)nnc32)cc1C#CCNC(C)=O [5-148′, methyl (S)-2-(3-acetamidoprop-1-yn-1-yl)-4-(4-(2-(4-(4-chlorophenyl)-2,3,9-trimethyl-6H-thieno[3,2-f][1,2,4]triazolo[4,3-a][1,4]diazepin-6-yl)acetamido)butanamido)benzoate] | + (the degrading capacity of each BRD4 degrader was reduced by less than 40%) |
| COC(=O)c1ccc(NC(=O)CCCN(C)C(=O)C[C@@H]2N=C(c3ccc(Cl)cc3)c3c(sc(C)c3C)-n3c(C)nnc32)cc1C#CCN.Cl [5-149′, methyl (S)-2-(3-aminoprop-1-yn-1-yl)-4-(4-(2-(4-(4-chlorophenyl)-2,3,9-trimethyl-6H-thieno[3,2-f][1,2,4]triazolo[4,3-a][1,4]diazepin-6-yl)-N-methylacetamido)butanamido)benzoate hydrochloride] | +++ (the degrading capacity was reduced by 70% or more) |
| COC(=O)c1ccc(N(C)C(=O)CCCNC(=O)C[C@@H]2N=C(c3ccc(Cl)cc3)c3c(sc(C)c3C)-n3c(C)nnc32)cc1C#CCN.Cl [5-150′, methyl (S)-2-(3-aminoprop-1-yn-1-yl)-4-(4-(2-(4-(4-chlorophenyl)-2,3,9-trimethyl-6H-thieno[3,2-f][1,2,4]triazolo[4,3-a][1,4]diazepin-6-yl)acetamido)-N-methylbutanamido)benzoate hydrochloride] | +++ (the degrading capacity was reduced by 70% or more) |
| COC(=O)c1ccc(N(C)C(=O)C2CCN(C(=O)C[C@@H]3N=C(c4ccc(Cl)cc4)c4c(sc(C)c4C)-n4c(C)nnc43)CC2)cc1C#CCN [5-152′, methyl (S)-2-(3-aminoprop-1-yn-1-yl)-4-(1-(2-(4-(4-chlorophenyl)-2,3,9-trimethyl-6H-thieno[3,2-f][1,2,4]triazolo[4,3-a][1,4]diazepin-6-yl)acetyl)-N-methylpiperidine-4-carboxamido)benzoate trifluoroacetic acid] | +++ (the degrading capacity was reduced by 70% or more) |
